From US8076338B2, “Kinase modulators and methods of use” (Exelixis, Inc., priority 2004, dated 2011)
Like-named read-outs stand apart in the source and are kept apart here.

Assays:
AktK = AktK (Homo sapiens, UniProt P31749); assay: Luciferase-coupled chemiluminescence kinase assay (ATP consumption); type: biochemical; settings: read-out: AKT-1 IC50
Procedure: (§1) One measure of inhibition is Ki. […] The Ki for a compound is determined from the IC50 based on three assumptions. First, only one compound molecule binds to the enzyme and there is no cooperativity. […] Third, the enzymatic rate of the enzyme-inhibitor complex is zero. The rate data (i.e. compound concentration) are fitted to the equation: […]
(§2) Luciferase-Coupled Chemiluminescence Assay Protocol
(§3) Kinase activity is measured as the percent of ATP consumed following the kinase reaction using luciferase-luciferin-coupled chemiluminescence. Reactions were conducted in 384-well white, medium binding microtiter plates (Greiner). Kinase reactions were initiated by combining test compounds, ATP and kinase in a 20 uL volume. The reaction mixture was incubated at ambient temperature for 3 hrs. For p70S6K and/or AktK, 2.5-5 nM of the enzyme was pre-incubated with compound in 20 mM Tris pH 7.5, 10 mM MgCl2, 0.03% TX-100, and 1 mM DTT for 30 minutes at room temperature. Following the kinase reaction, a 20 μL aliquot of luciferase-luciferin mix was added and the chemiluminescence signal measured using a Victor^2 plate reader (Perkin Elmer). The luciferase-luciferin mix contained 50 mM HEPES, pH 7.8, 67 mM oxalic acid (pH 7.8), 5 (or 50) mM DTT, 0.4% Triton X-100, 0.25 mg/mL coenzyme A, 63 μM AMP, 28 μg/1 mL luciferin and 40,000 units/mL luciferase. Total ATP consumption was limited to 25-60% and the IC50 values correlate well with those determined by radiometric assays.

p70S6K = p70S6K (Homo sapiens, UniProt P23443); assay: as above; type: biochemical
Procedure: as §1, §2, §3

p70S6K, sequence (P23443 whole entry): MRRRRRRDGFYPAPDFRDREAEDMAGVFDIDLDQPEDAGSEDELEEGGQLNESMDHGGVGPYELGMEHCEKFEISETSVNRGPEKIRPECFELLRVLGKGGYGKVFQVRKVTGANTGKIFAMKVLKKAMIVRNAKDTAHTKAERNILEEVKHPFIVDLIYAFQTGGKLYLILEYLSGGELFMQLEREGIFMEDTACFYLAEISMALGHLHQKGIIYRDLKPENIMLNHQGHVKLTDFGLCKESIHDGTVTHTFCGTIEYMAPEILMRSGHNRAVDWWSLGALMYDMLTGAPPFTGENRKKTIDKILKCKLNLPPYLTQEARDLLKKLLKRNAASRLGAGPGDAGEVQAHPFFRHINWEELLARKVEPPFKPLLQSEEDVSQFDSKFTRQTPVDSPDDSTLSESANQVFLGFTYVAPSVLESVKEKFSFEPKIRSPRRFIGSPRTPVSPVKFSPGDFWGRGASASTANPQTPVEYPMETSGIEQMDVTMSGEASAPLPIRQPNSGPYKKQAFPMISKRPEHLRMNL
AktK, sequence (P31749 whole entry): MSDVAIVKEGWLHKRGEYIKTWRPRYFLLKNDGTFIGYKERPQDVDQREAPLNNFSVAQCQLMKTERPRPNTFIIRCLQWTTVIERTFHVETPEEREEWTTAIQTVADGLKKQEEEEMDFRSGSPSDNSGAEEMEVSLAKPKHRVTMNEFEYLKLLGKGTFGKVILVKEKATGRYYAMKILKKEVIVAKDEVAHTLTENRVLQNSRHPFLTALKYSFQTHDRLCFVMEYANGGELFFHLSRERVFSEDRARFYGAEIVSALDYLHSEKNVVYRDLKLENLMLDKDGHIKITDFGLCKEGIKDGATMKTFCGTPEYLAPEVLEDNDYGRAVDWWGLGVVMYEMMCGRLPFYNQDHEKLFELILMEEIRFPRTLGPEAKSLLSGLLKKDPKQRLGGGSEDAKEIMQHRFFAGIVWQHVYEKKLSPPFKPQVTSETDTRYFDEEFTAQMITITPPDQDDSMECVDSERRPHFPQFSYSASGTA

Compound	IC50 (AktK; Table 1, class symbols per key) [nM]	IC50 (p70S6K; Table 1, class symbols per key) [nM]	IC50 (AktK) [nM]	IC50 (p70S6K) [nM]
CCS(=O)(=O)c1cc(NCCN2CCCC2)c(C)c(N2CCN(c3ncnc4[nH]nc(Br)c34)CC2)c1 [Entry 260, 3-[4-(3-bromo-1H-pyrazolo[3,4-d]pyrimidin-4-yl)piperazin-1-yl]-5-(ethylsulfonyl)-2-methyl-N-(2-pyrrolidin-1-ylethyl)aniline]	< 100	< 100		
CCc1n[nH]c2ncnc(N3CCN(c4cc(F)cc(Br)c4Cl)CC3)c12 [Entry 114, 4-[4-(3-bromo-2-chloro-5-fluorophenyl)piperazin-1-yl]-3-ethyl-1H-pyrazolo[3,4-d]pyrimidine]	≥ 10000	100 to 1000		
O=[N+]([O-])c1ccc(N2CCN(c3ncnc4[nH]nc(Br)c34)CC2)cc1 [Entry 97, 3-bromo-4-[4-(4-nitrophenyl)piperazin-1-yl]-1H-pyrazolo[3,4-d]pyrimidine]	≥ 10000	100 to 1000		
4-[4-(5-chloro-2-methylphenyl)piperazin-1-yl]-3-(2-methylpropyl)-1H-pyrazolo[3,4-d]pyrimidine [Entry 355]			1000 to 10000	< 100
COc1ccccc1N1CCN(c2ncnc3[nH]nc(Br)c23)CC1 [Entry 66, 3-bromo-4-{4-[2-(methyloxy)phenyl]piperazin-1-yl}-1H-pyrazolo[3,4-d]pyrimidine]	≥ 10000	< 100		
CCN(CC)CCCOc1cc(Cl)cc(N2CCN(c3ncnc4[nH]nc(C(F)(F)F)c34)CC2)c1C [Entry 56, 3-[(5-chloro-2-methyl-3-{4-[3-(trifluoromethyl)-1H-pyrazolo[3,4-d]pyrimidin-4-yl]piperazin-1-yl}phenyl)oxy]-N,N-diethylpropan-1-amine]	100 to 1000	< 100		
6-(4-phenylpiperazin-1-yl)-9H-purine [Example 1]	1000 to 10000	1000 to 10000		
CN(C)CCOc1nccnc1N1CCN(c2ncnc3[nH]nc(Br)c23)CC1 [Entry 119, 2-({3-[4-(3-bromo-1H-pyrazolo[3,4-d]pyrimidin-4-yl)piperazin-1-yl]pyrazin-2-yl}oxy)-N,N-dimethylethanamine]	1000 to 10000	100 to 1000		
Cc1c(NCCN2CCCC2)cc(OCC2CCCO2)cc1N1CCN(c2ncnc3[nH]nc(Br)c23)CC1 (stereo not drawn) [Entry 222, 3-[4-(3-bromo-1H-pyrazolo[3,4-d]pyrimidin-4-yl)piperazin-1-yl]-2-methyl-N-(2-pyrrolidin-1-ylethyl)-5-[(tetrahydrofuran-2-ylmethyl)oxy]aniline]	< 100	< 100		
CCc1n[nH]c2ncnc(N3CCN(c4nc(C)cnc4C)CC3)c12 [Entry 101, 4-[4-(3,6-dimethylpyrazin-2-yl)piperazin-1-yl]-3-ethyl-1H-pyrazolo[3,4-d]pyrimidine]	≥ 10000	100 to 1000		
CCc1n[nH]c2ncnc(N3CCN(c4cc(F)cc(NCCN5CCCC5)c4C)CC3)c12 [Entry 78, 3-[4-(3-ethyl-1H-pyrazolo[3,4-d]pyrimidin-4-yl)piperazin-1-yl]-5-fluoro-2-methyl-N-(2-pyrrolidin-1-ylethyl)aniline]	1000 to 10000	< 100		
Cc1c(NCCN2CCCC2)cc(-c2nc(-c3ccccc3)no2)cc1N1CCN(c2ncnc3[nH]nc(Br)c23)CC1 [Entry 241, 3-[4-(3-bromo-1H-pyrazolo[3,4-d]pyrimidin-4-yl)piperazin-1-yl]-2-methyl-5-(3-phenyl-1,2,4-oxadiazol-5-yl)-N-(2-pyrrolidin-1-ylethyl)aniline]	1000 to 10000	< 100		
CCc1ccccc1N1CCN(c2ncnc3[nH]nc(Br)c23)CC1 [Entry 105, 3-bromo-4-[4-(2-ethylphenyl)piperazin-1-yl]-1H-pyrazolo[3,4-d]pyrimidine]	≥ 10000	100 to 1000		

Continued, values first:

IC50 (AktK; Table 1, class symbols per key) [nM]	IC50 (p70S6K; Table 1, class symbols per key) [nM]	IC50 (AktK) [nM]	IC50 (p70S6K) [nM]	Compound
≥ 10000	100 to 1000			Clc1ccc(N2CCN(c3ncnc4[nH]nc(Br)c34)CC2)cc1 [Entry 154, 3-bromo-4-[4-(4-chlorophenyl)piperazin-1-yl]-1H-pyrazolo[3,4-d]pyrimidine]
< 100	< 100			CCc1n[nH]c2ncnc(N3CCN(c4cc(OCC(F)(CF)CF)cc(NCCN5CCCC5)c4C)CC3)c12 [Entry 256, 5-{[2,3-difluoro-2-(fluoromethyl)propyl]oxy}-3-[4-(3-ethyl-1H-pyrazolo[3,4-d]pyrimidin-4-yl)pipera-zin-1-yl]-2-methyl-N-(2-pyrrolidin-1-ylethyl)aniline]
100 to 1000	< 100			Cc1c(NCCN2CCCC2)cc(C(=O)NOCC2CC2)cc1N1CCN(c2ncnc3[nH]nc(Br)c23)CC1 [Entry 258, 3-[4-(3-bromo-1H-pyrazolo[3,4-d]pyrimidin-4-yl)piperazin-1-yl]-N-[(cyclopropylmethyl)oxy]-4-methyl-5-[(2-pyrrolidin-1-ylethyl)amino]benzamide]
< 100	< 100			Cc1ccc(C(=O)Nc2ccccc2)cc1N1CCN(c2ncnc3[nH]nc(Br)c23)C[C@@H]1CO [Entry 200, 3-[(2R)-4-(3-bromo-1H-pyrazolo[3,4-d]pyrimidin-4-yl)-2-(hydroxymethyl)piperazin-1-yl]-4-methyl-N-phenylbenzamide]
100 to 1000	< 100			CCc1n[nH]c2ncnc(N3CCN(c4cc(Cl)cc(NCCN(C)C(C)C)c4C)CC3)c12 [Entry 146, N′-{5-chloro-3-[4-(3-ethyl-1H-pyrazolo[3,4-d]pyrimidin-4-yl)piperazin-1-yl]-2-methylphenyl}-N-methyl-N-(1-methylethyl)ethane-1,2-diamine]
		≥ 10000	100 to 1000	Cc1ccccc1N1CCN(c2ncnc3[nH]ncc23)CC1 [Entry 317, 4-[4-(2-methylphenyl)piperazin-1-yl]-1H-pyrazolo[3,4-d]pyrimidine]
		≥ 10000	< 100	Cc1n[nH]c2ncnc(N3CCN(c4cccc(Cl)c4)CC3)c12 [Entry 318, 4-[4-(3-chlorophenyl)piperazin-1-yl]-3-methyl-1H-pyrazolo[3,4-d]pyrimidine]
< 100	< 100			CCC(=O)c1cc(NCCN2CCCC2)c(C)c(N2CCN(c3ncnc4[nH]nc(Br)c34)CC2)c1 [Entry 243, 1-{3-[4-(3-bromo-1H-pyrazolo[3,4-d]pyrimidin-4-yl)piperazin-1-yl]-4-methyl-5-[(2-pyrrolidin-1-ylethyl)amino]phenyl}propan-1-one]
< 100	< 100			Cc1c(NCCN2CCCC2)cc(OCC(F)(F)F)cc1N1CCN(c2ncnc3[nH]nc(Br)c23)CC1 [Entry 285, 3-[4-(3-bromo-1H-pyrazolo[3,4-d]pyrimidin-4-yl)piperazin-1-yl]-2-methyl-N-(2-pyrrolidin-1-ylethyl)-5-[(2,2,2-trifluoroethyl)oxy]aniline]
		100 to 1000	< 100	Cc1ccc(Cl)cc1N1CCN(c2ncnc3[nH]nc(/C=C/C(=O)O)c23)CC1 [Entry 369, (2E)-3-{4-[4-(5-chloro-2-methylphenyl)piperazin-1-yl]-1H-pyrazolo[3,4-d]pyrimidin-3-yl}prop-2-enoic acid]
100 to 1000	< 100			COC(=O)c1cc(Br)c(C)c(N2CCN(c3ncnc4[nH]nc(Br)c34)CC2)c1 [Entry 186, methyl 3-bromo-5-[4-(3-bromo-1H-pyrazolo[3,4-d]pyrimidin-4-yl)piperazin-1-yl]-4-methylbenzoate]
1000 to 10000	< 100			CCNC(=O)COc1cccc(N2CCN(c3ncnc4[nH]nc(Br)c34)CC2)c1 [Entry 139, 2-({3-[4-(3-bromo-1H-pyrazolo[3,4-d]pyrimidin-4-yl)piperazin-1-yl]phenyl}oxy)-N-ethylacetamide]
		≥ 10000	1000 to 10000	COc1ccc(N2CCN(c3ncnc4[nH]cnc34)CC2)cc1 [Entry 306, 6-{4-[4-(methyloxy)phenyl]piperazin-1-yl}-9H-purine]
		1000 to 10000	1000 to 10000	Cc1ccc(Cl)cc1N1CCN(c2ncnc3[nH]nc(N4CCN(C)CC4)c23)CC1 [Entry 391, 4-[4-(5-chloro-2-methylphenyl)piperazin-1-yl]-3-(4-methylpiperazin-1-yl)-1H-pyrazolo[3,4-d]pyrimidine]
< 100	< 100			Cc1c(NCCN(C)C)cc(OCC(F)(CF)CF)cc1N1CCN(c2ncnc3[nH]nc(Br)c23)CC1 [Entry 229, N′-(3-[4-(3-bromo-1H-pyrazolo[3,4-d]pyrimidin-4-yl)piperazin-1-yl]-5-{[2,3-difluoro-2-(fluorometh-yl)propyl]oxy}-2-methylphenyl)-N,N-dimethylethane-1,2-diamine]
		1000 to 10000	< 100	Cc1ccc(Cl)cc1N1CCN(c2ncnc3[nH]nc(C(F)(F)F)c23)CC1 [Entry 348, 4-[4-(5-chloro-2-methylphenyl)piperazin-1-yl]-3-(trifluoromethyl)-1H-pyrazolo[3,4-d]pyrimidine]
< 100	< 100			CCCC(O)c1cc(NCCN2CCCC2)c(C)c(N2CCN(c3ncnc4[nH]nc(Br)c34)CC2)c1 (stereo not drawn) [Entry 286, 1-{3-[4-(3-bromo-1H-pyrazolo[3,4-d]pyrimidin-4-yl)piperazin-1-yl]-4-methyl-5-[(2-pyrrolidin-1-ylethyl)amino]phenyl}butan-1-ol]
